Measured values reported in ChEMBL document CHEMBL1201862, “PubChem BioAssay data set” (2004).
Where “and” joins values, the source holds several entries; their conditions need not be identical. Identical values can stand only once. Calls of active or inactive are those of the source.

Assays:
[1] = target: Ras and Rab interactor 1/Tyrosine-protein kinase ABL1 (Homo sapiens, UniProt P00519+Q13671); type: functional;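 further: biochemical TR-FRET dose-response test measuring inhibition of binding between Rin1 and Abl proteins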
Chain of Ras and Rab interactor 1/Tyrosine-protein kinase ABL1 (P00519 whole entry): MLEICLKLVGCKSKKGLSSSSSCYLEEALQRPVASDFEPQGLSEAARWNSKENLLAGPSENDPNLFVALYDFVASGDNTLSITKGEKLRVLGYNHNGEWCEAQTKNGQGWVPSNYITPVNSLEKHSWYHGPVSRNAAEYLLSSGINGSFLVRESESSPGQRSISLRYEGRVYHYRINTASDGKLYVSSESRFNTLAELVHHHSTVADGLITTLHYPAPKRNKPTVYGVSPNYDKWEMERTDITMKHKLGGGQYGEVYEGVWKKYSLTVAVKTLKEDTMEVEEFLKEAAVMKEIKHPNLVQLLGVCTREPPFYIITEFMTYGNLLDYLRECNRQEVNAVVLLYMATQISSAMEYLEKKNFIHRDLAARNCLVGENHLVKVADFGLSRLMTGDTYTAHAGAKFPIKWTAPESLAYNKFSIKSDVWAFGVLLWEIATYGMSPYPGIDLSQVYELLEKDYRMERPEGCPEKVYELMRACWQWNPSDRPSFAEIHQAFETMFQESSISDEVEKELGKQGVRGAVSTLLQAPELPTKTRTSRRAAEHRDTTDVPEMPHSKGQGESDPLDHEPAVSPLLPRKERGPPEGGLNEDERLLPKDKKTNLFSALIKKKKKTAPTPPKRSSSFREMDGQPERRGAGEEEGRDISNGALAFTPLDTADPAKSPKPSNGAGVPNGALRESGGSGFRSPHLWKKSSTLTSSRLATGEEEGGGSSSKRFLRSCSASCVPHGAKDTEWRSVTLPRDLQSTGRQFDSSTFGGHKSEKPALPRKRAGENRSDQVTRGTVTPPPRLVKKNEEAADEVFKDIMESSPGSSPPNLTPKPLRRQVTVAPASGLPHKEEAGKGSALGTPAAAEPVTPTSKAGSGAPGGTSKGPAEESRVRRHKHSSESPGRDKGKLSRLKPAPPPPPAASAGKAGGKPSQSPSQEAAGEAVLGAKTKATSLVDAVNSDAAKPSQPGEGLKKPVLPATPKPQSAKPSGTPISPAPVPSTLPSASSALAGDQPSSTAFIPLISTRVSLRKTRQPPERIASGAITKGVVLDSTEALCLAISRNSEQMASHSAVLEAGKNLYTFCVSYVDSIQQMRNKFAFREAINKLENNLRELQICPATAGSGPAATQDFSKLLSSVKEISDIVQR
Chain of Ras and Rab interactor 1/Tyrosine-protein kinase ABL1 (Q13671 whole entry): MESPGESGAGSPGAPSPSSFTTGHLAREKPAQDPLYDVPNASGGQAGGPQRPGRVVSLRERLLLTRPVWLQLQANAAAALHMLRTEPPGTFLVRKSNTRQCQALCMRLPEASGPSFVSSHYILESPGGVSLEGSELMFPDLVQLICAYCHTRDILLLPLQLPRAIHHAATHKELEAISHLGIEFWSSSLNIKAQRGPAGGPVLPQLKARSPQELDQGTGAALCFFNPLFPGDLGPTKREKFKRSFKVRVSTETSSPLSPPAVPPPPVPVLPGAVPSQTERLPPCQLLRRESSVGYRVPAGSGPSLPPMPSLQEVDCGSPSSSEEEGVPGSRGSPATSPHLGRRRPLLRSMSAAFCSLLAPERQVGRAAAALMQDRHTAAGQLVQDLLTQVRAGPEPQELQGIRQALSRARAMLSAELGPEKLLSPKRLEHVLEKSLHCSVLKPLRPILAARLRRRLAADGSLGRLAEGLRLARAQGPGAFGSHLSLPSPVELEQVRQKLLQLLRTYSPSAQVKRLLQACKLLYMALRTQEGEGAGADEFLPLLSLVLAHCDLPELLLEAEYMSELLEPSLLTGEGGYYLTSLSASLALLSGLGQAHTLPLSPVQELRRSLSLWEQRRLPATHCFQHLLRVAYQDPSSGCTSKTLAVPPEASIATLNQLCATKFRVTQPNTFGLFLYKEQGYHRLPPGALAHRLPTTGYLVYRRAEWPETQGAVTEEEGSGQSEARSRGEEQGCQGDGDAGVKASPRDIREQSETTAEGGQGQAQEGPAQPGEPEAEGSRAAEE

[2] = HepG2 cell cytotoxicity, dose response, cytotoxicity control for Shn3 inhibitor project, CellTiter-Glo, cherry-picked (AID 624134); type: functional, cell-based
Melanocortin receptor 4 = Melanocortin receptor 4 (Homo sapiens, UniProt P32245); type: functional, cell-based;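 further: Cell-based assay with luminescence read-out, confirmatory dose-response testing for agonist activity of biased ligands at MC4R; human U2OS cells with tagged receptor and beta-arrestin; potency of agonists that increase receptor coupling to beta-arrestin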
Chain of Melanocortin receptor 4 (P32245 whole entry): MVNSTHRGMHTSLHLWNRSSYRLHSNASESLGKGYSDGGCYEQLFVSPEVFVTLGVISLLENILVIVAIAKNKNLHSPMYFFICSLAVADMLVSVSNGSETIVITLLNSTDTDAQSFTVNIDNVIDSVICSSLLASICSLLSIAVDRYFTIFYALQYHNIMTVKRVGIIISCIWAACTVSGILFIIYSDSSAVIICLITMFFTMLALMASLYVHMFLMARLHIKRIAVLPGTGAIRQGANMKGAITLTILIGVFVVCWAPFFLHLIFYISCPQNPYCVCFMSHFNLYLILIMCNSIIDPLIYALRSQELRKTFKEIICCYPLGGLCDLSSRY

[3] = control 3'UTR Renilla luciferase suppression, dose response, counter-screen for Shn3 inhibitor project, cell-based, Clone20-Shn3RL, cherry-picked (AID 624133); type: functional
[4] = inhibitors of intracellular T. cruzi replication, confirmation, NIH3T3 host cells, beta-gal luminescence (AID 2044); type: functional, cell-based;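 further: intracellular parasites grown in NIH/3T3 mouse fibroblasts as host cells; luminescent beta-galactosidase reporter signal from transgenic T. cruzi replicating inside host cells; inhibitors lower the luminescence signal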
[5] = Shn3 3'UTR reporter inhibitors, dose response, cell-based, Clone20 osteoblasts, firefly luciferase, cherry-picked (AID 624132); type: functional;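 further: firefly luciferase luminescence from reporter carrying the Shn3 3'UTR in osteoblasts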
[6] = cytotoxicity toward NIH3T3 fibroblasts, dose response, counter-screen, cell-based, ATP luminescence, mouse fibroblasts (AID 2010); type: functional;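 further: cells exposed to compound for about 90 hours before reading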
[7] = target: T1, Ubiquitin-conjugating enzyme E2 N (Homo sapiens, UniProt P61088); type: functional
T1 sequence (P61088 whole entry): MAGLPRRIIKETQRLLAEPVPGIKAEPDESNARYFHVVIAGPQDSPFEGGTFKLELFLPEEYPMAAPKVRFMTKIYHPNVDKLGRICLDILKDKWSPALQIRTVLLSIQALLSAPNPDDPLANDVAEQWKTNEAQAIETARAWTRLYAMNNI

[8] = target: T1, Ubiquitin-conjugating enzyme E2 N; type: functional; remark: listed apart in the source
[9] = target: Heat shock protein HSP 90-alpha (Homo sapiens, UniProt P07900); type: functional, organism-based
Protein RecA = target: T2, Protein RecA (Mycobacterium tuberculosis, UniProt P9WHJ3); experiment: Fluorescence Cell-Free Homogeneous Dose Retest to Identify Inhibitors of RecA-Intein Splicing Activity. [Related pubchem assays (depositor defined):AID2097, AID2223, AID489010, AID492950]; type: functional
T2 sequence (P9WHJ3 whole entry): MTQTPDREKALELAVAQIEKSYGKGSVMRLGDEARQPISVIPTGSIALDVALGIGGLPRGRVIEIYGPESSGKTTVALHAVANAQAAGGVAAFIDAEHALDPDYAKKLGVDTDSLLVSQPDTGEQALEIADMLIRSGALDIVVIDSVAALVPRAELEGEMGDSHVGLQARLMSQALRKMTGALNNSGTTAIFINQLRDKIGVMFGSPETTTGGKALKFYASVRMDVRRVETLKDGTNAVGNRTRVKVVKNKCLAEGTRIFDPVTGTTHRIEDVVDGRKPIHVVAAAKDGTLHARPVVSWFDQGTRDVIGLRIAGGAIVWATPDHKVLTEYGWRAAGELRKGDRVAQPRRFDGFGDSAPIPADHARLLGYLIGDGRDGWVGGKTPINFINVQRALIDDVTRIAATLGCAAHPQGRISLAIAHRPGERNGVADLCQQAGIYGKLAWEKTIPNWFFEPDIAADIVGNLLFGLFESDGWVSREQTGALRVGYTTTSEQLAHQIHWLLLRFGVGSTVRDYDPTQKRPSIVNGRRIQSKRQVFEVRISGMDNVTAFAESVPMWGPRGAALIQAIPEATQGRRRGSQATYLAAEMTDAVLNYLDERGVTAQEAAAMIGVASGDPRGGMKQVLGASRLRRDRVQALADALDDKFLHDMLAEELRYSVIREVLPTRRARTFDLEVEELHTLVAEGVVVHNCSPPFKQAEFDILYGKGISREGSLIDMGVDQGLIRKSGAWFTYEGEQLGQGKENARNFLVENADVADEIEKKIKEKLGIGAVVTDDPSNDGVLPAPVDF

Bcl-2-related protein A1 = target: T3, Bcl-2-related protein A1 (Mus musculus, UniProt Q07440); type: functional;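 further: confirmatory dose–response counterscreen on Bfl-1, used to check hits from a UBC13 polyubiquitin inhibitor campaign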
T3 sequence (Q07440 whole entry): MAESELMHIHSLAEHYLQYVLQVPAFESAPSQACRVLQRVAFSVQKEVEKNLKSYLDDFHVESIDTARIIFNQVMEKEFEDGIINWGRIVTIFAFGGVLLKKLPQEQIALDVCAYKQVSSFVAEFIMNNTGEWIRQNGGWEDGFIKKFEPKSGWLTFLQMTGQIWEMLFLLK

Vero = experiment: cells; type: functional; conditions: Chlorocebus sabaeus
[10] = target: T4, Replicative DNA helicase DnaB (Mycobacterium tuberculosis, UniProt P9WMR3); experiment: DnaB intein splicing inhibitors, dose response, biochemical, cell-free fluorescence (AID 449749); type: functional
T4 sequence (P9WMR3 whole entry): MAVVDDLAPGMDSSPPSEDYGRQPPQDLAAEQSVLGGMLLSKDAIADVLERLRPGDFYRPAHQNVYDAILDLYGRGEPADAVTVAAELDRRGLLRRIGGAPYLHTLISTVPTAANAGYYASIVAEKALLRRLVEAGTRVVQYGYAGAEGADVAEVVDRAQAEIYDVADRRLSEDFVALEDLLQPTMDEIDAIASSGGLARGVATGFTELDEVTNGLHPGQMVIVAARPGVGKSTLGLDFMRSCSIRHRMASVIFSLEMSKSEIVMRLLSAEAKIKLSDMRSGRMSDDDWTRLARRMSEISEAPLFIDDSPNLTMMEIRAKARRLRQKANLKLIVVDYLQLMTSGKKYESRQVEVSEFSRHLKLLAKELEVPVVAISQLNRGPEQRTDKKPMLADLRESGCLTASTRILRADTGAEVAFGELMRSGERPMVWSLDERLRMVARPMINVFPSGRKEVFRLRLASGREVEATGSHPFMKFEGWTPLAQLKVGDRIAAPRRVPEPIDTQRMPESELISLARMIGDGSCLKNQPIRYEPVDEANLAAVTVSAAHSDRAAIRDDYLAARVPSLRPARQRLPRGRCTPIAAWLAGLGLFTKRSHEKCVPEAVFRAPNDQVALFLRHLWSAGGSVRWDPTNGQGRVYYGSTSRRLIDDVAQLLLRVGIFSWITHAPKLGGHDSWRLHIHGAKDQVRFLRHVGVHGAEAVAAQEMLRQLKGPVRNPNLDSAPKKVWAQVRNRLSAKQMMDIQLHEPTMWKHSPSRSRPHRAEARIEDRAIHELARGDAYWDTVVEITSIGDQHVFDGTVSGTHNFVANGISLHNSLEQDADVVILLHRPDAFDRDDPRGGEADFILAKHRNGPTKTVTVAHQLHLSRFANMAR

[11] = target: Neurotensin receptor type 1 (Homo sapiens, UniProt P30989); type: functional;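 further: Image-based confirmatory dose-response assay measuring agonist activity at NTR1; NTR1-expressing U2OS osteosarcoma cells imaged for beta-arrestin GFP spot formation; agonist potency where compounds increase beta-arrestin recruitment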
Chain of Neurotensin receptor type 1 (P30989 whole entry): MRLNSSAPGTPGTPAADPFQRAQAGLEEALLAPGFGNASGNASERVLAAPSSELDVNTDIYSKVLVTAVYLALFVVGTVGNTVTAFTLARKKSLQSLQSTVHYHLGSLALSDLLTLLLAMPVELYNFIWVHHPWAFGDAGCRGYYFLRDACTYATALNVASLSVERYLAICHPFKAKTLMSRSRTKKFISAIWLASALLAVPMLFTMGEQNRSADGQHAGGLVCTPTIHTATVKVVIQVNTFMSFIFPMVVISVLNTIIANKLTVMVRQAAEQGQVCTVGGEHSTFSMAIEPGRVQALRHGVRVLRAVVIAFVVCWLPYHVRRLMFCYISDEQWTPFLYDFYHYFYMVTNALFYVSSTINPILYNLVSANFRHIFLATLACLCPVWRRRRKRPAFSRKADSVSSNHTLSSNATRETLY

INS1 = experiment: beta cell apoptosis inhibitors, cytokine rescue, dose response, luminescence, retest (AID 449756); type: functional, cell-based;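 further: cell death triggered by IL-1 beta plus TNF-alpha plus IFN-gamma mixture; protective hits raise ATP signal compared with cytokine alone wells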
[12] = target: T5, Apoptotic protease-activating factor 1 (Homo sapiens, UniProt O14727); type: functional
T5 sequence (O14727 whole entry): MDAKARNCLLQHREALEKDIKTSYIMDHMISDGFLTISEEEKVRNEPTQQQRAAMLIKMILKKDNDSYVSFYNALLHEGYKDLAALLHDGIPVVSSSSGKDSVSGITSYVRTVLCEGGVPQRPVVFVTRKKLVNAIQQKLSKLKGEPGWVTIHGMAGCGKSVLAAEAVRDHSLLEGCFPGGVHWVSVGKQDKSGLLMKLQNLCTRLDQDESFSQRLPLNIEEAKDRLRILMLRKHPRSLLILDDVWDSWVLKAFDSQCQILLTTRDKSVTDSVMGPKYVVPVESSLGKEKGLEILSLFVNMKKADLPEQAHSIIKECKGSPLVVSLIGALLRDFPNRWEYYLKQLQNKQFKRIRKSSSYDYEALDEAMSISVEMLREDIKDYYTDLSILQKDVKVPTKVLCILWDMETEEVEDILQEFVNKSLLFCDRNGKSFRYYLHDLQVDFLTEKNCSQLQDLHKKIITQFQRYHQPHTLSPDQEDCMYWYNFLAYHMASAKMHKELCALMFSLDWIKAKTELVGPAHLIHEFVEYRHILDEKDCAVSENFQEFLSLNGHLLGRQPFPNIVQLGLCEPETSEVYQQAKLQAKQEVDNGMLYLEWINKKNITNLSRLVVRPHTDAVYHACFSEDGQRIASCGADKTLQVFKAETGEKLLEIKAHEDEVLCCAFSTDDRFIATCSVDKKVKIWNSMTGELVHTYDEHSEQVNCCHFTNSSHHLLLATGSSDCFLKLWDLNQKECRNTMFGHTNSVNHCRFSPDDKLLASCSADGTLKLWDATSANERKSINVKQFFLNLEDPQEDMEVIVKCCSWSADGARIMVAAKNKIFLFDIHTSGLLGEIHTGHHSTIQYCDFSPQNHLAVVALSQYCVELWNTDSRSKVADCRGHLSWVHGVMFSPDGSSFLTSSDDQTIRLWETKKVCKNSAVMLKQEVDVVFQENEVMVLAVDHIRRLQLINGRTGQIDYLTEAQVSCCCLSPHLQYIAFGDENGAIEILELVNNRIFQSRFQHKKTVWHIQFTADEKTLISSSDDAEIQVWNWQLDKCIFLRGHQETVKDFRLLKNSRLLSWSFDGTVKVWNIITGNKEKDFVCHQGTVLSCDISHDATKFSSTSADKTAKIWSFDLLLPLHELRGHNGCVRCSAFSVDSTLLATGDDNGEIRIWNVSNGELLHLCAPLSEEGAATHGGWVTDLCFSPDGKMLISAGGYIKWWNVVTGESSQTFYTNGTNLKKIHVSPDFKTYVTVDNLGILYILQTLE

Prothrombin = Prothrombin (Bos taurus, UniProt P00735); experiment: thrombin inhibition, dose response, biochemical, fluorescence polarization, uHTS hits (AID 602369); type: functional
[13] = target: T6, Carboxy-terminal domain RNA polymerase II polypeptide A small phosphatase 1 (Homo sapiens, UniProt Q9GZU7); experiment: inhibitors of CTDSP1, concentration-response testing, biochemical assay, absorbance-based, actives from ultra-high-throughput screening (AID 540297); type: functional
T6 sequence (Q9GZU7 whole entry): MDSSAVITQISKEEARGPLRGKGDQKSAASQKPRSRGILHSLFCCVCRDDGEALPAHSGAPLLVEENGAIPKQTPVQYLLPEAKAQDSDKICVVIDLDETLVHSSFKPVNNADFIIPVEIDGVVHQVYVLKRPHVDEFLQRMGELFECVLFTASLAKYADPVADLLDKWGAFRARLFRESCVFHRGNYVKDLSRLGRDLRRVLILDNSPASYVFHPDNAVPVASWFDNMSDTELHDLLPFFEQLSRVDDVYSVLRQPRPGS

[14] = target: 72 kDa type IV collagenase (Homo sapiens, UniProt P08253); experiment: Dose Response validation of uHTS RPN11 inhibitor hits using a MMP-2 Fluorescence assay.; type: functional
[15] = target: 26S proteasome non-ATPase regulatory subunit 14 (Homo sapiens, UniProt O00487); experiment: inhibition of proteasome subunit RPN11 – biochemical, fluorescence polarization, uHTS hits, confirmation (AID 602368); type: functional
Chain of 26S proteasome non-ATPase regulatory subunit 14 (O00487 whole entry): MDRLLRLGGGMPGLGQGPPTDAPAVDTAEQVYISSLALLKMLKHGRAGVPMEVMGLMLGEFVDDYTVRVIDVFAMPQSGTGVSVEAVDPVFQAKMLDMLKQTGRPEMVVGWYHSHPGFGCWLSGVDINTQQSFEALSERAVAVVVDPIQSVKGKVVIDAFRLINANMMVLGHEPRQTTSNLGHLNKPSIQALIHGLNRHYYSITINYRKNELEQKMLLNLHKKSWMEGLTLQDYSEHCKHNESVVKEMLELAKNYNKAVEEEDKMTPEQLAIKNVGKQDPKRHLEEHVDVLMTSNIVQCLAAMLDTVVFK

[16] = target: T7, Polyadenylate-binding protein 1 (Homo sapiens, UniProt P11940); experiment: PABP1 MLLE–PAM2 interaction inhibitors, dose response, miRNA deadenylation inhibitor project, biochemical, fluorescence polarization, Cy5-PAM2 peptide, secondary (AID 602260); type: functional; conditions: read-out: IC50_Mean
T7 sequence (P11940 whole entry): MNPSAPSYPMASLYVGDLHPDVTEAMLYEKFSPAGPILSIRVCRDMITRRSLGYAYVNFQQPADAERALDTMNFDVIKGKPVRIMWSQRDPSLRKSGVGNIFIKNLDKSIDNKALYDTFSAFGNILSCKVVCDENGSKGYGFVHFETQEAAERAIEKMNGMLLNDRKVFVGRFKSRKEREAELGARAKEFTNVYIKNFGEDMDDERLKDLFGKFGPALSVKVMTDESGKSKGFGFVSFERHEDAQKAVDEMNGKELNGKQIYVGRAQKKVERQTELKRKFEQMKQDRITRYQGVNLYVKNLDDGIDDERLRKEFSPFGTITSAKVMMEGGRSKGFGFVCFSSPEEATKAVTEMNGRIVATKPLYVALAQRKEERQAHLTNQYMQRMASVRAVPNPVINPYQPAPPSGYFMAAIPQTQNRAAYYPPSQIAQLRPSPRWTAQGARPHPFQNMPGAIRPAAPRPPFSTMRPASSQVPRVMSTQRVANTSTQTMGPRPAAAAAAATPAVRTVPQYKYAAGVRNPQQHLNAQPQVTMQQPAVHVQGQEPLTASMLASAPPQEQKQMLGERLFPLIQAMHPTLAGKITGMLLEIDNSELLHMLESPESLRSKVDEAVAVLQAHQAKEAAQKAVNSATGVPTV

[17] = target: T7, Polyadenylate-binding protein 1; experiment: PABP1 MLLE–PAM2 binding inhibitor potency, dose response, biochemical, fluorescence polarization, FITC-PAM2 peptide (AID 602259); type: functional; conditions: read-out: IC50_Mean
[18] = target: Tyrosine-protein phosphatase non-receptor type 5 (Homo sapiens, UniProt P54829); experiment: STEP phosphatase inhibitors, confirmation, biochemical, fluorescence intensity, uHTS hits (AID 602372); type: functional; conditions: read-out: IC50_Mean
Chain of Tyrosine-protein phosphatase non-receptor type 5 (P54829 whole entry): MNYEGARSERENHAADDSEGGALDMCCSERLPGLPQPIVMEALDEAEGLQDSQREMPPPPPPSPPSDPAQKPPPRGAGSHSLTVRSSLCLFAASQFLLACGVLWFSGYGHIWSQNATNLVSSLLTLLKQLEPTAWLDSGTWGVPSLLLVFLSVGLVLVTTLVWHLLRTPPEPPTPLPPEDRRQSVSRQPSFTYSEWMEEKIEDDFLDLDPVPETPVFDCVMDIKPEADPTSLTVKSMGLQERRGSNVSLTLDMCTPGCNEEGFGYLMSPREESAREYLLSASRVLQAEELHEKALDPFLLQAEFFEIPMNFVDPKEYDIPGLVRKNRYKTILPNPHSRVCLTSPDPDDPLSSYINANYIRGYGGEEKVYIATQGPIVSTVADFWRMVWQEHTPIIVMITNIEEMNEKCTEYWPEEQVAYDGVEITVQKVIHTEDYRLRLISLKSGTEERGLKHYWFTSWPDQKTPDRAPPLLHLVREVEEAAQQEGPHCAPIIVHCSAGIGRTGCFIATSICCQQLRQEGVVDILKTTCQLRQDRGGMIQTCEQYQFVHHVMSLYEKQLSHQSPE

[19] = target: Tyrosine-protein phosphatase non-receptor type 11 (Homo sapiens, UniProt Q06124); experiment: SHP2 phosphatase inhibition, dose response, selectivity assay for STEP inhibitor project, biochemical (AID 602367); type: functional; conditions: read-out: IC50_Mean
Chain of Tyrosine-protein phosphatase non-receptor type 11 (Q06124 whole entry): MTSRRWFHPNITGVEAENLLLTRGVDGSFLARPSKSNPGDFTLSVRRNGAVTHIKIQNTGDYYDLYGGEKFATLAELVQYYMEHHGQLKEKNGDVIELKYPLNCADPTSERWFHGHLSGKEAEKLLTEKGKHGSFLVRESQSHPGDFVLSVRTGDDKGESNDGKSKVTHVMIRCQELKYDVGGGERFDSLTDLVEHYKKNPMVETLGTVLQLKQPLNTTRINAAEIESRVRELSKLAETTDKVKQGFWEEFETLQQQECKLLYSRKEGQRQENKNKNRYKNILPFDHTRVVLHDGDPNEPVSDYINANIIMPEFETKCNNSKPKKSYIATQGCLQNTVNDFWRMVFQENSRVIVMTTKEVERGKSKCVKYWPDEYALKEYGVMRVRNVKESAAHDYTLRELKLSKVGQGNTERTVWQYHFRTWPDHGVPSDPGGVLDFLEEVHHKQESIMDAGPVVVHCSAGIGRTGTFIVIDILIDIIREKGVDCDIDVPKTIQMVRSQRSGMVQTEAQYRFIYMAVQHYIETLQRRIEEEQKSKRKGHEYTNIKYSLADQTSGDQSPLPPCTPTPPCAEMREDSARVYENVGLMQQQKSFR

[20] = target: Dual specificity protein phosphatase 3 (Homo sapiens, UniProt P51452); experiment: VHR phosphatase inhibition, dose response, selectivity assay for STEP inhibitor project, biochemical (AID 602374); type: functional; conditions: read-out: IC50_Mean
Chain of Dual specificity protein phosphatase 3 (P51452 whole entry): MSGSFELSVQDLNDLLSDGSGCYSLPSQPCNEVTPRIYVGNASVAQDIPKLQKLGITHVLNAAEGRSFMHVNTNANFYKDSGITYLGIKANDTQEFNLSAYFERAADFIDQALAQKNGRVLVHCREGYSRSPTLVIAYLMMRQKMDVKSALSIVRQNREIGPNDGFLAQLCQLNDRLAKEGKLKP

Compound: O=C(Nc1ccccc1N1CCN(C(=O)c2ccc(Cl)cc2)CC1)c1cccnc1
- IC50 [1]: 16.4 µM (inactive)

Compound: CC(=O)Nc1cc2c(nc1C)nc(C)n2Cc1ccc(Br)cc1
- IC50 [1]: 15.5 µM (inactive)

Compound: COc1ccc(CNCCc2ccc(Cl)cc2)cc1OCc1ccccc1
- AC50 [2]: > 70 µM (inactive)
- EC50 (cells): 0.114 µM (active)
- EC50 (Melanocortin receptor 4): > 9.91 µM (active)
- AC50 [3]: 11.9 µM (active)
- EC50 [4]: < 0.1 µM (active)
- AC50 [5]: 5.59 µM (active)
- EC50 [6]: > 60 µM (not active)

Compound: CCCCCCCCCCOC(=O)Cn1c(COc2ccc(OC)cc2)[n+](C)c2ccccc21
- IC50 [7]: 12.5 µM (active)
- IC50 [8]: 11 µM (active)
- AC50 [9]: 38.2 µM (active)
- EC50 (Protein RecA): 10.6 µM (active) and 11.1 µM (active)
- IC50 (Bcl-2-related protein A1): 19.1 µM (active)
- CC50 (Vero): > 25 µM (active)
- AC50 [10]: 3.97 µM (active) and 4.05 µM (active)
- EC50 (Melanocortin receptor 4): > 89.2 µM (inactive)
- AC50 [3]: 3.44 µM (active)
- EC50 [11]: 15.8 µM (active)
- AC50 (INS1; Rattus norvegicus, INS1): 3.65 µM (active)
- AC50 (INS1; ins1): 3.47 µM (active)
- AC50 [5]: 2.01 µM (active)
- IC50 [12]: 10.7 µM (active) and 13.4 µM (active)

Compound: Cc1ccc(NC(=O)CCc2nc(O)c3c4c(sc3n2)CCCC4)nc1
- IC50 (Prothrombin): 55 µM (active)
- IC50 [13]: 5.1 µM (active)
- IC50 [14]: > 100 µM (inactive)
- IC50 [15]: 23.1 µM (active)

Compound: CCCCn1c2ccc(F)cc2c2nnc(SCCN3CCOCC3)nc21
- IC50 [16]: > 66 µM (inactive)
- IC50 [17]: > 66 µM (inactive)

Compound: S=C(c1ccc(Br)cc1)N1CCN(Cc2ccccc2)CC1
- IC50 [18]: 22.7 µM (inactive)
- IC50 [19]: 1.81 µM (active)
- IC50 [20]: 0.719 µM (active)
